Experimental data published in ChEMBL document CHEMBL3991601, “The target landscape of clinical kinase drugs” (Science, 2017).
Active and inactive are the calls of the source.

Tests used:
[1] = biological target: Elongation factor Tu, mitochondrial (Homo sapiens, UniProt P49411)
[2] = biological target: Cyclin-dependent kinase 7 (Homo sapiens, UniProt P50613)
[3] = biological target: T1, Discoidin domain-containing receptor 2 (Homo sapiens, UniProt Q16832)
T1 sequence (Q16832 whole entry): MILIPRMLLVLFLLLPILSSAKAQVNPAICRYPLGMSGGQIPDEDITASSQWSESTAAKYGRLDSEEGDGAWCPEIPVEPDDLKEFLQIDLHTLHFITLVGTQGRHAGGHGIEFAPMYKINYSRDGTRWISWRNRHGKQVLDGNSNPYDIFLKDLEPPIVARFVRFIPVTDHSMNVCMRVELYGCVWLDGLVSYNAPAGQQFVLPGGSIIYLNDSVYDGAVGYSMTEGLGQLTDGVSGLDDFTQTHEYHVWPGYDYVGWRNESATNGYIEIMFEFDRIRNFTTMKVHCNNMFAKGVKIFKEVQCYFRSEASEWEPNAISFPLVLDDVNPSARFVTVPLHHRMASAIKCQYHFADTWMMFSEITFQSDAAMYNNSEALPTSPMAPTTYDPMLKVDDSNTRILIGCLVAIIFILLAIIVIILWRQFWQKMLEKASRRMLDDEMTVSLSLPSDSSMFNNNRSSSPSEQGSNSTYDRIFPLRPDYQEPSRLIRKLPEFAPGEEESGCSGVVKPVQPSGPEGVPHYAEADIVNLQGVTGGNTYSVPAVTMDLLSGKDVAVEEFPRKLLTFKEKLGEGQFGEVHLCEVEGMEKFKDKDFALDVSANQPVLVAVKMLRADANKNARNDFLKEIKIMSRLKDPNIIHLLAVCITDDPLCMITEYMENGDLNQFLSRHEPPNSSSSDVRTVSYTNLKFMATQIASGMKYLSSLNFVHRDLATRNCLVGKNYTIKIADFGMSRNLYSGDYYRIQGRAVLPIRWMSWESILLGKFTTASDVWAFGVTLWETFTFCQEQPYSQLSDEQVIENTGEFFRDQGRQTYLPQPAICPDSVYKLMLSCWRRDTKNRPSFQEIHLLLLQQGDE

[4] = biological target: Dual specificity mitogen-activated protein kinase kinase 2 (Homo sapiens, UniProt P36507)
[5] = biological target: T2, Very long-chain specific acyl-CoA dehydrogenase, mitochondrial (Homo sapiens, UniProt P49748)
T2 sequence (P49748 whole entry): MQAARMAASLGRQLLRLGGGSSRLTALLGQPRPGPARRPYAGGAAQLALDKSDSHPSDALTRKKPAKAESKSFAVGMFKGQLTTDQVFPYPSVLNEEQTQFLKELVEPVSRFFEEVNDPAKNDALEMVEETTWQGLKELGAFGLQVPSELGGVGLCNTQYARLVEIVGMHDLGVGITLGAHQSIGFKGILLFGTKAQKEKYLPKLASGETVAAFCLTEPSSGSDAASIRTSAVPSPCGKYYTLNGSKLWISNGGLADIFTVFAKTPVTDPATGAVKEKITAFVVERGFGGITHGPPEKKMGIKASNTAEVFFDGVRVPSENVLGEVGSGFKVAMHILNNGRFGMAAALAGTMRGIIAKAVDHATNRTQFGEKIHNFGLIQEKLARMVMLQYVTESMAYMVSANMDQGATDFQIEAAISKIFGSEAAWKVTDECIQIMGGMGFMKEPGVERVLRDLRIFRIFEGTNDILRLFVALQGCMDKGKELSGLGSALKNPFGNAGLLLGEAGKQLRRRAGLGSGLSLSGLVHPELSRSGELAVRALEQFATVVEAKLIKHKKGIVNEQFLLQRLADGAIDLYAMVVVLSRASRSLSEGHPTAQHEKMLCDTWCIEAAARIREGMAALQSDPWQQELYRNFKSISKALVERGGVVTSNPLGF

[6] = biological target: T3, Electron transfer flavoprotein subunit beta (Homo sapiens, UniProt P38117)
T3 sequence (P38117 whole entry): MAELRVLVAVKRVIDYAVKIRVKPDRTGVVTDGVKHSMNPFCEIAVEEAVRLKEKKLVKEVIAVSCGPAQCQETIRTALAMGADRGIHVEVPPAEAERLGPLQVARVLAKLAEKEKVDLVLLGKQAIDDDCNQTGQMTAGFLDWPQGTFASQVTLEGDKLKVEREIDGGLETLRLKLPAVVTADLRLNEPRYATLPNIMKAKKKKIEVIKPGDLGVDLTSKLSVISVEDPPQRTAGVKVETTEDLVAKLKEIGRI

[7] = biological target: T4, Dynamin-like GTPase OPA1, mitochondrial (Homo sapiens, UniProt O60313)
T4 sequence (O60313 whole entry): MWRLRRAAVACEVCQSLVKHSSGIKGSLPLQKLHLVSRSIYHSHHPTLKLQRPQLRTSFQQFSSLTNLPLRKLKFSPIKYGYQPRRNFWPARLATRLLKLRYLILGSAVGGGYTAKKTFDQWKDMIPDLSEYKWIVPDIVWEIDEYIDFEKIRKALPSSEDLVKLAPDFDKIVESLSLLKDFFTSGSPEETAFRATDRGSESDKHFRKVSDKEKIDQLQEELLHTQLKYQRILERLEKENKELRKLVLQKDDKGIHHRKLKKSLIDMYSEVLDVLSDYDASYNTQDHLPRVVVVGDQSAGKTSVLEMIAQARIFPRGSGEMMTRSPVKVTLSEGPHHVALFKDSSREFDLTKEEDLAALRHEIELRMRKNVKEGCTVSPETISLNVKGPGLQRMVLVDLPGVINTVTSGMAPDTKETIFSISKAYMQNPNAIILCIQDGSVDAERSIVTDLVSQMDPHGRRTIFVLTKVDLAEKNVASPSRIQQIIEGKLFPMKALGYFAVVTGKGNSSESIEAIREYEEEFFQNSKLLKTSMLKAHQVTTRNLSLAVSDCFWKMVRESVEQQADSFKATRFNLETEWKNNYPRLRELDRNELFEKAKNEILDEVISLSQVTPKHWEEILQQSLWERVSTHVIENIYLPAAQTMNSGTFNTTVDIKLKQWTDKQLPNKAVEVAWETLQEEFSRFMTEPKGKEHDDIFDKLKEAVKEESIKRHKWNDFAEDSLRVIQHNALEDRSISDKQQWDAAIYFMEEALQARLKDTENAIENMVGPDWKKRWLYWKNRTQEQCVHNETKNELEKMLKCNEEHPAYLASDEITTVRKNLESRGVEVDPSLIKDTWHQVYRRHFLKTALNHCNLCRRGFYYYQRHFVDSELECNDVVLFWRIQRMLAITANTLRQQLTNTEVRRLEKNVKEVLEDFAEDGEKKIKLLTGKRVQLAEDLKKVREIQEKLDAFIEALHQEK
Note: in the data inactive means no Kd found up to 30 µM.

Chain of Cyclin-dependent kinase 7 (P50613 whole entry, the tested form may be a part): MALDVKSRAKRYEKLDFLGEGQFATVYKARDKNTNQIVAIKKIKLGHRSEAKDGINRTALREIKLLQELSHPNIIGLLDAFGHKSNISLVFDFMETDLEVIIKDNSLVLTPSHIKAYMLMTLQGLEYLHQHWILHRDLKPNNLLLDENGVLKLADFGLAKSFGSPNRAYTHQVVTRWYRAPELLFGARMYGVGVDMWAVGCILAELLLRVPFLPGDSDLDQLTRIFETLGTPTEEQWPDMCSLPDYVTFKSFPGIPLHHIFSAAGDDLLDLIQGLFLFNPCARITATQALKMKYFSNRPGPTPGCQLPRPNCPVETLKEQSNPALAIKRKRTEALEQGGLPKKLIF
Chain of Dual specificity mitogen-activated protein kinase kinase 2 (P36507 whole entry): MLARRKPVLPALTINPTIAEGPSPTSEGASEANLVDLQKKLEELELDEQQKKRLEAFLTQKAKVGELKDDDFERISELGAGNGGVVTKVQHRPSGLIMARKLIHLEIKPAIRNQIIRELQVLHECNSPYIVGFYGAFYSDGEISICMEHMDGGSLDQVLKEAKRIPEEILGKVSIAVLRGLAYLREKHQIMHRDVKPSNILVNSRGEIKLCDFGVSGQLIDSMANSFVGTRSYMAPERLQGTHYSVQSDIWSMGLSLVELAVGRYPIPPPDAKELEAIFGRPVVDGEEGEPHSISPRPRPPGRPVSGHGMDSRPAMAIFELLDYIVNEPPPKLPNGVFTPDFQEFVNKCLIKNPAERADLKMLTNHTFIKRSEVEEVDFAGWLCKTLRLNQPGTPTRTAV

SMILES	Kd [1]	Kd [2]	Kd [3]	Kd [4]	Kd [5]	Kd [6]	Kd [7]
COc1cc2nccc(Oc3ccc(NC(=O)C4(C(=O)Nc5ccc(F)cc5)CC4)cc3)c2cc1OC [CABOZANTINIB]	> 30 µM (inactive)	> 30 µM (inactive)	0.501 µM (active)	> 30 µM (inactive)	> 30 µM (inactive)	> 30 µM (inactive)	> 30 µM (inactive)
Cc1cc(Nc2nc(N[C@@H](C)c3ncc(F)cn3)ncc2Cl)n[nH]1 [AZD-1480]	> 30 µM (inactive)	> 30 µM (inactive)	> 30 µM (inactive)	> 30 µM (inactive)	> 30 µM (inactive)	> 30 µM (inactive)	> 30 µM (inactive)
COc1cc2ncnc3c2cc1OCCCCCN(C)Cc1ccc(Br)cc1N3 [JNJ-26483327]	> 30 µM (inactive)	> 30 µM (inactive)	> 30 µM (inactive)	> 30 µM (inactive)	> 30 µM (inactive)	> 30 µM (inactive)	> 30 µM (inactive)
CCc1cc2c(cc1N1CCC(N3CCOCC3)CC1)C(C)(C)c1[nH]c3cc(C#N)ccc3c1C2=O [ALECTINIB]	> 30 µM (inactive)	> 30 µM (inactive)	> 30 µM (inactive)	> 30 µM (inactive)	> 30 µM (inactive)	> 30 µM (inactive)	> 30 µM (inactive)
CNC(=O)c1cccc(-c2ccc3c(N4CCOC[C@@H]4C)nc(N4CCOC[C@@H]4C)nc3n2)c1 [VISTUSERTIB]	> 30 µM (inactive)	> 30 µM (inactive)	> 30 µM (inactive)	> 30 µM (inactive)	> 30 µM (inactive)	> 30 µM (inactive)	> 30 µM (inactive)
CNC(=O)c1cc(COc2nnc(Nc3ccc(Cl)cc3)c3ccoc23)ccn1 [TELATINIB]	> 30 µM (inactive)	> 30 µM (inactive)	> 30 µM (inactive)	> 30 µM (inactive)	> 30 µM (inactive)	> 30 µM (inactive)	> 30 µM (inactive)
Cn1c(=O)c(F)c(Nc2ccc(I)cc2F)c2c(=O)n(C[C@@H](O)CO)cnc21 [TAK-733]	> 30 µM (inactive)	> 30 µM (inactive)	> 30 µM (inactive)	0.02 µM (active)	> 30 µM (inactive)	> 30 µM (inactive)	> 30 µM (inactive)
CC[C@@](C)(Nc1ccnc(-c2c[nH]c3ncccc23)n1)C(=O)NCC(F)(F)F [DECERNOTINIB]	> 30 µM (inactive)	> 30 µM (inactive)	> 30 µM (inactive)	> 30 µM (inactive)	> 30 µM (inactive)	> 30 µM (inactive)	> 30 µM (inactive)
NC[C@@](O)(c1ccc(Cl)cc1)c1ccc(-c2cn[nH]c2)cc1 [AT-13148]	> 30 µM (inactive)	> 30 µM (inactive)	> 30 µM (inactive)	> 30 µM (inactive)	> 30 µM (inactive)	> 30 µM (inactive)	> 30 µM (inactive)
Cc1c(NC(=O)OC[C@@H]2COCCN2)cn2ncnc(Nc3ccc4c(cnn4Cc4cccc(F)c4)c3)c12 [AC-480]	> 30 µM (inactive)	> 30 µM (inactive)	> 30 µM (inactive)	> 30 µM (inactive)	> 30 µM (inactive)	> 30 µM (inactive)	> 30 µM (inactive)
COc1cc(Nc2ncc(F)c(Nc3ccc4c(n3)N(COP(=O)(O)O)C(=O)C(C)(C)O4)n2)cc(OC)c1OC [FOSTAMATINIB]	> 30 µM (inactive)	> 30 µM (inactive)	> 30 µM (inactive)	> 30 µM (inactive)	> 30 µM (inactive)	> 30 µM (inactive)	> 30 µM (inactive)
C[C@@H]1COC(Nc2ccc3ncnc(Nc4ccc(OCc5nccs5)c(Cl)c4)c3c2)=N1 [VARLITINIB]	> 30 µM (inactive)	> 30 µM (inactive)	> 30 µM (inactive)	> 30 µM (inactive)	> 30 µM (inactive)		> 30 µM (inactive)
COCCN1CCN(Cc2ccc(-c3n[nH]c4c3C(=O)c3c(NC(=O)NN5CCOCC5)cccc3-4)cc2)CC1 [RGB-286638]	> 30 µM (inactive)	0.154 µM (active)	> 30 µM (inactive)	> 30 µM (inactive)	> 30 µM (inactive)	> 30 µM (inactive)	> 30 µM (inactive)
O[C@H]1CC[C@H](Nc2ncc3nc(Nc4c(F)cc(F)cc4F)n([C@H]4CCOC4)c3n2)CC1 [TANZISERTIB]	> 30 µM (inactive)	> 30 µM (inactive)	> 30 µM (inactive)	> 30 µM (inactive)	> 30 µM (inactive)		> 30 µM (inactive)
FC(F)(F)c1ccc(CNc2ccc(Cc3c[nH]c4ncc(Cl)cc34)cn2)cn1 [PEXIDARTINIB]	> 30 µM (inactive)	> 30 µM (inactive)	> 30 µM (inactive)	> 30 µM (inactive)	> 30 µM (inactive)		> 30 µM (inactive)
CN1CCN(c2nc(C3=C(c4c[nH]c5ccccc45)C(=O)NC3=O)c3ccccc3n2)CC1 [SOTRASTAURIN]	> 30 µM (inactive)	> 30 µM (inactive)	> 30 µM (inactive)	> 30 µM (inactive)	> 30 µM (inactive)		> 30 µM (inactive)
c1cc(OCCN2CCCCC2)cc(-c2n[nH]c3ccc(-c4nc[nH]n4)cc23)c1 [CC-401]	> 30 µM (inactive)	> 30 µM (inactive)	> 30 µM (inactive)	> 30 µM (inactive)		> 30 µM (inactive)	> 30 µM (inactive)
O=c1[nH]c([C@@H]2CCCN2)nc2c1oc1ccc(Cl)cc12	> 30 µM (inactive)	> 30 µM (inactive)	> 30 µM (inactive)	> 30 µM (inactive)	> 30 µM (inactive)		> 30 µM (inactive)
